Read-outs that look alike come from different tables or passages of the source.
Tests used:
[1] = molecular target: biotinylated human IL-17A / AF647-labeled human IL-17RA (Homo sapiens, UniProt Q16552); assay: Human IL-17A×IL-17RA TR-FRET assay; assay type: binding
Method in brief: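 Compounds tested in duplicate at each concentration; neutral controls contain all components with DMSO in place of compound.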

[2] = molecular target: recombinant human IL-17AA (Homo sapiens, UniProt Q16552); assay: IL-6 release from NHDF cells, IL-17AA plus TNF-α stimulation; assay type: cell-based; details: 24 hours, IL-6 by ELISA
recombinant human IL-17AA, sequence (Q16552 24-155): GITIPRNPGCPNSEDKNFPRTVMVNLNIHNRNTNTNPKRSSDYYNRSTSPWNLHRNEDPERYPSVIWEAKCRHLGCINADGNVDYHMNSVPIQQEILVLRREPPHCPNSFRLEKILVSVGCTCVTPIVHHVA
Method in brief: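 IL-17-specific IL-6 release from NHDF cells adhered overnight; compounds pre-incubated 30 min at room temperature with human IL-17AA plus TNF-α, then 24 h on cells at 37° C. Final DMSO 0.1% or plasma 20%; IL-6 by ELISA (450 nm). TNF-α-only IL-6 subtracted before IC50 fit.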

[3] = TR-FRET, 5 nM IL-17A, 30 nM IL-17RA, read-out: IL17AA FRET/ IL17Rawt IC50
[4] = NHDF cells, IL-17AA 30 pM + TNF-α 6 pM, read-out: IL17AA + TNF IC50 IL-6
[5] = TR-FRET, biotinylated human IL-17A 5 nM, AF647-labeled human IL-17RA 30 nM, read-out: IL17AA FRET/ IL17Rawt IC50
[6] = NHDF cells, IL-17AA 30 pM plus TNF-α 6 pM, read-out: IL17AA + TNF IC50 IL-6
[7] = IL17AA FRET/ IL17Rawt IC50, TR-FRET, 5 nM IL-17A, 30 nM IL-17RA
[8] = IL17AA + TNF IC50 IL-6, NHDF cells, IL-17AA 30 pM + TNF-α 6 pM

biotinylated human IL-17A / AF647-labeled human IL-17RA, sequence (Q16552 24-155): as above

SMILES	IC50 [1, 3] [µM]	IC50 [2, 4] [µM]	IC50 [1, 5] [µM]	IC50 [2, 6] [µM]	further results
Cc1cc[n+]([O-])c(C)c1-c1ccc(NC(=O)[C@@H](NC(=O)c2cn[nH]c2C(C)C)C2CCCCC2)cc1 [Example 157, (S)-3-(4-(2-cyclohexyl-2-(5-isopropyl-1H-pyrazole-4-carboxamido)acetamido)phenyl)-2,4-dimethylpyridine 1-oxide]	0.17	0.105	–	–	–
Cc1c[n+]([O-])cc(C)c1-c1ccc(NC(=O)[C@@H](NC(=O)c2ccnn2C)C2CCCCCC2)cc1 [Example 99, (S)-4-(4-(2-cycloheptyl-2-(1-methyl-1H-pyrazole-5-carboxamido)acetamido)phenyl)-3,5-dimethylpyridine 1-oxide]	–	–	0.208	0.081	–
CCn1nccc1C(=O)N[C@H](C(=O)Nc1ccc(-c2cc(Cl)c[n+]([O-])c2C)cc1)C1CCC(F)(F)CC1 [Example 170, (S)-5-chloro-3-(4-(2-(4,4-difluorocyclohexyl)-2-(1-ethyl-1H-pyrazole-5-carboxamido)acetamido)phenyl)-2-methylpyridine 1-oxide]	–	–	–	–	IC50 [1, 7]: 0.402 µM; IC50 [2, 8]: 0.231 µM
Cc1cc[n+]([O-])c(C)c1-c1ccc(NC(=O)C(NC(=O)c2ccnn2C)C2CCCCC(F)(F)C2)cc1 (stereo not drawn) [Example 156, 3-(4-(2-(3,3-difluorocycloheptyl)-2-(1-methyl-1H-pyrazole-5-carboxamido)acetamido)phenyl)-2,4-dimethylpyridine 1-oxide]	0.11	0.0515	–	–	–
Cc1c(-c2ccc(NC(=O)C(NC(=O)c3ccnn3C(C)C)C3CCCC(F)(F)C3)cc2)c(Cl)cc[n+]1[O-] (stereo not drawn) [Example 158, 4-chloro-3-(4-(2-(3,3-difluorocyclohexyl)-2-(1-isopropyl-1H-pyrazole-5-carboxamido)acetamido)phenyl)-2-methylpyridine 1-oxide]	< 0.0061	0.0155	–	–	–
Cc1cc[n+]([O-])c(C)c1-c1ccc(NC(=O)C(NC(=O)c2ccnn2C)C2CCCC(F)(F)C2)cc1 (stereo not drawn) [Example 147, 3-(4-(2-(3,3-difluorocyclohexyl)-2-(1-methyl-1H-pyrazole-5-carboxamido)acetamido)phenyl)-2,4-dimethylpyridine 1-oxide]	–	0.193	–	–	IC50 [1, 7]: 0.513 µM
CCn1nccc1C(=O)N[C@H](C(=O)Nc1ccc(-c2c(C(F)(F)F)cc[n+]([O-])c2C)cc1)[C@H]1CCCC(F)(F)C1 [Example 10, 3-(4-((S)-2-((S)-3,3-difluorocyclohexyl)-2-(1-ethyl-1H-pyrazole-5-carboxamido)acetamido)phenyl)-2-methyl-4-(trifluoromethyl)pyridine 1-oxide]	–	–	0.093	0.011	–
Cc1c(-c2ccc(NC(=O)[C@@H](NC(=O)c3ccnn3C)C3CCCCCC3)cc2)c(Cl)cc[n+]1[O-] [Example 47, (S)-4-chloro-3-(4-(2-cycloheptyl-2-(1-methyl-1H-pyrazole-5-carboxamido)acetamido)phenyl)-2-methylpyridine 1-oxide]	–	–	0.017	0.007	–
Cc1c(-c2ccc(NC(=O)[C@@H](NC(=O)c3ccnn3C)C3CCCCC3)c(F)c2)c(Cl)cc[n+]1[O-] [Example 59, (S)-4-chloro-3-(4-(2-cyclohexyl-2-(1-methyl-1H-pyrazole-5-carboxamido)acetamido)-3-fluorophenyl)-2-methylpyridine 1-oxide]	–	–	0.049	0.056	–
Cc1cc[n+]([O-])c(C)c1-c1ccc(NC(=O)[C@@H](NC(=O)c2ccnn2C(C)C)C2CCCCC2)cc1F [Example 96, 3-(4-((S)-2-cyclohexyl-2-(1-isopropyl-1H-pyrazole-5-carboxamido)acetamido)-2-fluorophenyl)-2,4-dimethylpyridine 1-oxide]	–	–	0.07	0.007	–
CC(=O)N1CCn2c(ccc2C(=O)N[C@H](C(=O)Nc2ccc(-c3c(Cl)cc[n+]([O-])c3C)c(F)c2)C2CCCCC2)C1 [Example 187, 3-(4-((S)-2-(2-acetyl-1,2,3,4-tetrahydropyrrolo[1,2-a]pyrazine-6-carboxamido)-2-cyclohexylacetamido)-2-fluorophenyl)-4-chloro-2-methylpyridine 1-oxide]	0.0854	0.017	–	–	–
Cc1c(-c2ccc(NC(=O)[C@@H](NC(=O)c3ccnn3C)C(c3ccccc3)c3ccccc3)cc2)c(Cl)cc[n+]1[O-] [Example 69, (S)-4-chloro-2-methyl-3-(4-(2-(1-methyl-1H-pyrazole-5-carboxamido)-3,3-diphenylpropanamido)phenyl)pyridine 1-oxide]	–	–	0.09	0.02	–
CCn1nccc1C(=O)N[C@H](C(=O)Nc1ccc(-c2c(C)cc[n+]([O-])c2C)cc1)C1CCCC1 [Example 35, (S)-3-(4-(2-cyclopentyl-2-(1-ethyl-1H-pyrazole-5-carboxamido)acetamido)phenyl)-2,4-dimethylpyridine 1-oxide]	–	–	0.306	0.212	–
CC(=O)N1CCn2c(ccc2C(=O)N[C@H](C(=O)Nc2ccc(-c3c(C)cc[n+]([O-])c3C)cc2F)C2CCCCCC2)C1 [Example 195, (S)-3-(4-(2-(2-acetyl-1,2,3,4-tetrahydropyrrolo[1,2-a]pyrazine-6-carboxamido)-2-cycloheptylacetamido)-3-fluorophenyl)-2,4-dimethylpyridine 1-oxide]	0.178	0.0285	–	–	–
Cc1c(-c2ccc(NC(=O)[C@@H](NC(=O)c3ccnn3C)C3CCCCC3)cc2)c(Cl)cc[n+]1[O-] [Example 45, (S)-4-chloro-3-(4-(2-cyclohexyl-2-(1-methyl-1H-pyrazole-5-carboxamido)acetamid)phenyl)-2-methylpyridine 1-oxide]	–	–	–	–	IC50 ([1]; IL17AA FRET/ IL17Rawt IC50, TR-FRET, biotinylated human IL-17A 5 nM, AF647-labeled human IL-17RA 30 nM): 0.026 µM; IC50 ([2]; IL17AA + TNF IC50 IL-6, NHDF cells, IL-17AA 30 pM plus TNF-α 6 pM): 0.026 µM
Cc1c(-c2ccc(NC(=O)[C@@H](NC(=O)c3ccc4n3CCNC4)C3CCC(F)(F)CC3)cc2F)c(Cl)cc[n+]1[O-] [Example 179, 4-chloro-3-(4-((S)-2-(4,4-difluorocyclohexyl)-2-(1,2,3,4-tetrahydropyrrolo[1,2-a]pyrazine-6-carboxamido)acetamido)-2-fluorophenyl)-2-methylpyridine 1-oxide]	0.0139	0.06	–	–	–
CCc1nocc1C(=O)N[C@H](C(=O)Nc1ccc(-c2c(C)cc[n+]([O-])c2C)cc1)C1CCCC1 [Example 34, (S)-3-(4-(2-cyclopentyl-2-(3-ethylisoxazole-4-carboxamido)acetamido)phenyl)-2,4-dimethylpyridine 1-oxide]	–	–	0.081	0.1	–
CCn1nccc1C(=O)NC(C(=O)Nc1ccc(-c2c(Cl)cc[n+]([O-])c2C)cc1)C1CC2CC2C1 (single isomer, unassigned) [Example 145]	0.024	0.0235	–	–	–
CCn1nccc1C(=O)NC(C(=O)Nc1ccc(-c2c(Cl)cc[n+]([O-])c2C)cc1)C1CC2CC2C1 (stereo not drawn) [Example 70, 3-(4-(2-(bicyclo[3.1.0]hexan-3-yl)-2-(1-ethyl-1H-pyrazole-5-carboxamido)acetamido)phenyl)-4-chloro-2-methylpyridine 1-oxide]	–	–	0.084	0.026	–
Cc1cc[n+]([O-])c(C)c1-c1ccc(NC(=O)C(NC(=O)c2ccnn2C)C2C=C(F)CCC2)cc1 (stereo not drawn) [Example 219, 3-(4-(2-(3-fluorocyclohex-2-en-1-yl)-2-(1-methyl-1H-pyrazole-5-carboxamido)acetamido)phenyl)-2,4-dimethylpyridine 1-oxide]	–	–	–	–	IC50 [1, 7]: 2.29 µM; IC50 [2, 8]: 0.142 µM
Cc1cc[n+]([O-])c(C)c1-c1ccc(NC(=O)C(NC(=O)c2ccc3n2CCNC3)C2CC3CC3C2)cc1 [Example 204, 3-(4-((S)-2-((1R,3s,5S)-bicyclo[3.1.0]hexan-3-yl)-2-(1,2,3,4-tetrahydropyrrolo[1,2-a]pyrazine-6-carboxamido)acetamido)phenyl)-2,4-dimethylpyridine 1-oxide]	0.278	0.095	–	–	–
Cc1cc[n+]([O-])c(C)c1-c1ccc(NC(=O)[C@@H](NC(=O)c2ccc3n2CCN(C)C3)C2CCC(F)(F)CC2)cc1 [Example 151, (S)-3-(4-(2-(4,4-difluorocyclohexyl)-2-(2-methyl-1,2,3,4-tetrahydropyrrolo[1,2-a]pyrazine-6-carboxamido)acetamido)phenyl)-2,4-dimethylpyridine 1-oxide]	0.26	0.057	–	–	–
COCCn1nccc1C(=O)N[C@H](C(=O)Nc1ccc(-c2c(Cl)cc[n+]([O-])c2C)c(F)c1)C1CCCCC1 [Example 15, 4-chloro-3-(4-((S)-2-cyclohexyl-2-(1-(2-methoxyethyl)-1H-pyrazole-5-carboxamido)acetamido)-2-fluorophenyl)-2-methylpyridine 1-oxide]	–	–	0.052	0.01	–
Cc1c[n+]([O-])cc(C)c1-c1ccc(NC(=O)[C@@H](NC(=O)c2ccc3n2CCNC3)C2CCCCCC2)cc1 [Example 116, (S)-4-(4-(2-cycloheptyl-2-(1,2,3,4-tetrahydropyrrolo[1,2-a]pyrazine-6-carboxamido)acetamido)phenyl)-3,5-dimethylpyridine 1-oxide]	–	–	0.304	0.118	–

Reference: patent US12600728B2, “Interleukin-17 inhibitors” (priority 2020, dated 2026)
